From PMC4826920 (Evidence-based Complementary and Alternative Medicine : eCAM, 2016)

Legend:
[1] = molecular target: T1, recombinant human MAO-A (hMAO-A) (Homo sapiens, UniProt P21397); assay: MAO-Glow luminescence assay, hMAO-A inhibition; type: biochemical; conditions: up to 250 μM tested
T1 construct: purchased Sigma-Aldrich
T1 sequence (P21397 1-527): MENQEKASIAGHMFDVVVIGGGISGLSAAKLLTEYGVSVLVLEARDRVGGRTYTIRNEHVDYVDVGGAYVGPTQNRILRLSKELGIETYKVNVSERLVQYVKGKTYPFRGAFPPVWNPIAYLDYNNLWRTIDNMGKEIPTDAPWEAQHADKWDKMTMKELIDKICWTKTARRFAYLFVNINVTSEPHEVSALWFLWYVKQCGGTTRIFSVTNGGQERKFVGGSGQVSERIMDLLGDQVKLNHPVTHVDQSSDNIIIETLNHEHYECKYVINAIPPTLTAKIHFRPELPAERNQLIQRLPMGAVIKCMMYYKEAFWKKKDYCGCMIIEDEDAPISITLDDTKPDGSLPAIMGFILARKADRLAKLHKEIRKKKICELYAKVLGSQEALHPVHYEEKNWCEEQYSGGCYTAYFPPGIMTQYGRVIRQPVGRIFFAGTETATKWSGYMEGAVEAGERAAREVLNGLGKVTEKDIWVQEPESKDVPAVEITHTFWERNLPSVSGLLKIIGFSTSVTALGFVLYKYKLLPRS
Method: (§1) All analyses were performed by GraphPad Prism Software 6.02 (San Diego, CA, USA). IC50 values were determined by nonlinear regression best-fit model of normalized response with variable slope. The inhibitor constant (K i) values were obtained from the competitive inhibition model. Lineweaver-Burk plot was obtained from Michaelis-Menten data. Relative selectivity (RS) folds were defined by the ratio of hMAO-A IC50 to hMAO-B IC50. The significance of the difference between two groups was determined using an unpaired t-test, between the control and treatments using one-way ANOVA followed by Dunnett's multiple comparisons tests and between two sets of data using two-way ANOVA followed by Sidak's multiple comparisons test.

rat MAO = conditions: cited from earlier work
[2] = molecular target: T2, recombinant human MAO-B (hMAO-B) (Homo sapiens, UniProt P27338); assay: MAO-Glow luminescence assay, hMAO-B inhibition; type: biochemical
T2 construct: purchased Sigma-Aldrich
T2 sequence (P27338 1-520): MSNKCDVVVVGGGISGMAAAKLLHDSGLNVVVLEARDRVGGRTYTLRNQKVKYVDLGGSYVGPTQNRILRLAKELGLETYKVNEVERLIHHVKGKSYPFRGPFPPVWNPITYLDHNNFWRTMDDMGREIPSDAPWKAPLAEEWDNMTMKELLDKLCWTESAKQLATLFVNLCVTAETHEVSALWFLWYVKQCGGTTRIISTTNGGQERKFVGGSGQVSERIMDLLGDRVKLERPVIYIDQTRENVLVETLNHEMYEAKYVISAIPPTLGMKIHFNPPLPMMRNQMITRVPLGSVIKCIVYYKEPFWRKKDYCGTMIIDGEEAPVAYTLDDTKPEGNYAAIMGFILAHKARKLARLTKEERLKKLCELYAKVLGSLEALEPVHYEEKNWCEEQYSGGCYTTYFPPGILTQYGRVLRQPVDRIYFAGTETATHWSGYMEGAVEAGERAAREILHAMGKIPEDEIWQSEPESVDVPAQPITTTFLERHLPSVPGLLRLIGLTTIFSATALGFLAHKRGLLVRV
Method: as §1, with “IC50” for “All analyses were performed by GraphPad Prism Software 6.02 (San Diego, CA, USA). IC50”

hMAO-A [3] = molecular target: T3, hMAO-A (Homo sapiens, UniProt P21397); assay: Michaelis-Menten kinetics (mode of inhibition), hMAO-A; type: biochemical
T3 construct: purchased Sigma-Aldrich
T3 sequence (P21397 1-527): T1 sequence (P21397 1-527)
Method: (§2) After 1.5 h of incubation, RLDR was added, and the luminescence signal was detected as mentioned in the hMAO-A and hMAO-B assay.
as §1

hMAO-B [4] = molecular target: T4, hMAO-B (Homo sapiens, UniProt P27338); assay: Recovery by dilution assay, hMAO-B; type: biochemical
T4 construct: purchased Sigma-Aldrich
T4 sequence (P27338 1-520): T2 sequence (P27338 1-520)
Method: (§3) The microplates were then incubated for 30, 40, 50, and 60 min. RLDR was added, and luminescence was measured as mentioned above.

[5] = oral 54 mg/day, postmenopausal women; cited from earlier work
hMAO-A [6] = molecular target: T3, hMAO-A; assay: Recovery by dilution assay, hMAO-A; type: biochemical
Method: as §3

bovine plasma MAO = test system: bovine plasma MAO; set-up: method as in PMID 1913999; conditions: cited from earlier work
hMAO-B [7] = molecular target: T4, hMAO-B; assay: Michaelis-Menten kinetics (mode of inhibition), hMAO-B; type: biochemical
Method: as §2
as §1, with “IC50” for “All analyses were performed by GraphPad Prism Software 6.02 (San Diego, CA, USA). IC50”

[8] = 40 min preincubation at 10x IC50, 100-fold dilution, vs negative control
[9] = 40 min preincubation at 100x IC50, 100-fold dilution, vs negative control
[10] = up to 60 min at RT, maximum 100x IC50

hMAO-A inhibitory effect [1] | hMAO-B inhibitory effect ([2]; up to 250 μM tested) | Change in Vmax, hMAO-A (hMAO-A [3]; GST 5, 10, 20 μM, p = 0.10) | Mode of hMAO-A inhibition (hMAO-A [3]; Lineweaver-Burk, LDS substrate) | hMAO-B residual catalytic rate after dilution to 0.1x IC50 (hMAO-B [4]; [8]) [%] | hMAO-B residual catalytic rate after dilution to 1x IC50 (hMAO-B [4]; [9]) [%] | Reversibility of hMAO-B inhibition (hMAO-B [4]; [10]) | hMAO-A residual catalytic rate after dilution to 0.1x IC50 (hMAO-A [6]; [8]) [%] | hMAO-A residual catalytic rate after dilution to 1x IC50 (hMAO-A [6]; [9]) [%] | Reversibility of hMAO-A inhibition (hMAO-A [6]; [10]) | hMAO-B potency as % of DEP potency ([2]; from IC50 values) [%] | Change in Vmax, hMAO-B (hMAO-B [7]; GST 5, 10, 20 μM, p = 0.44) | Mode of hMAO-B inhibition (hMAO-B [7]; Lineweaver-Burk, LDS substrate) | hMAO-B Ki lower than hMAO-A Ki (hMAO-B [7]; ratio of Ki values) [fold] | Structure (SMILES) | Rat MAO inhibition (rat MAO) | Steady-state level [5] | Bovine plasma MAO inhibition (bovine plasma MAO)
minor or partial inhibitory effect | minor or partial inhibitory effect |  |  |  |  |  |  |  |  |  |  |  |  | O=c1c(-c2ccc(O)cc2)coc2cc(O)ccc12 [DZ, Daidzein] | no significant rat MAO inhibition |  | 
 |  | no significant change | competitive | 86.1 | 47.1 | reversible inhibitor | 86.8 | 42.3 | reversible inhibitor | 1.4 | no significant change | competitive | 3.0 | O=c1c(-c2ccc(O)cc2)coc2cc(O)cc(O)c12 [GST, Genistein] |  | up to 1.00 μM | weak bovine plasma MAO inhibition
